Data published in US20230192686A1, “1H-PYRROLO[2,3-B]PYRIDINES AND PREPARATION AND USES THEREOF” (BioSplice Therapeutics, Inc., priority 2021, published 2023).

What was measured:
[1] = target: recombinant DYRK1A kinase (Homo sapiens, UniProt Q13627); assay: DYRK1A kinase assay (Ser/Thr 18 peptide Z-lyte FRET); assay type: biochemical; conditions: DYRK1A kinase activity; 15 μM ATP, 4 μM Ser/Thr peptide 18, one hour at room temperature
Procedure, shortened: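 Recombinant DYRK1A at 0.25 μg/mL was incubated 1 h at room temperature with 15 μM ATP, 4 μM Ser/Thr 18 peptide and compound, in duplicate, 11-point series from 10 μM. Phosphorylation was read by Z-lyte FRET after 1 h protease development, as the coumarin/fluorescein emission ratio converted to % phosphorylation. IC50 by non-linear regression.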

[2] = tested on: Tau phosphorylation at Thr212 (pThr212); assay: Tau phosphorylation assay, phosphoTau (Thr212) AlphaLISA in HEK293T cells transfected with DYRK1A and MAPT; assay type: cell-based; conditions: HEK-293T; HEK293T cells transfected with human DYRK1A and MAPT; compound treatment 18-24 hours; read-out: pTau (Thr212) EC50
Description: Representative compounds were screened using the assay procedure for tau phosphorylation activity described below.
HEK293T cells (ATCC, CRL3216) cultured in DMEM (Thermo Fisher Scientific, 10566024) supplemented with 10% FBS (Corning, 35-011-CV) and Penicillin/Streptomycin (Thermo Fisher Scientific, 15140163) were seeded in a 75 cm^2 flask at 8.1×10^6 cells/flask. The HEK293T cells were then transiently transfected with 5 μg DYRK1A (NM_001396) human untagged clone (OriGene, SC314641) and 2.5 μg MAPT (441 a.a. Tau gene) (NM_005910) human untagged clone (OriGene, TP313312) using Lipofectamine 3000 (Thermo Fisher Scientific, L30000015) and incubated for 20-30 hours in a humidified incubator at 37° C. and 5% CO2. Post-incubation, HEK293T cells transfected with the DYRK1A and MAPT expression vectors were harvested and seeded in BioCoat poly-D lysine coated 96-well plates (Corning, 354461) at 3×10^4 cells/well.
The above synthesized compounds were screened using the cell assay procedure to assess decreased Tau phosphorylation at Thr212 (pThr212) described below.
Each compound was dissolved in DMSO (Sigma-Aldrich, D8418-100 mL) as a 10 mM stock. 10 mM stocks were serially diluted 1:3, 10-point dose-response curve and added to the cells with a final concentration ranging from 20 μM to 1.1 nM. Cell were treated with compounds in duplicate and incubated for 18-24 hours in a humidified incubator at 37° C. and 5% CO2.
Following the overnight compound treatment, cells were lysed with 1× Alpha Surefire Ultra Lysis Buffer (Perkin Elmer, ALSU-LB-100ML) complemented with 1× Halt Phosphatase Inhibitor Cocktail (Thermo Fisher Scientific, 78427) and 1× Halt Protease Inhibitor Cocktail (Thermo Fisher Scientific, 78438). Lysates were spun down at 12,000 g for 10 min to remove any cellular debris and 5 μL of lysates were dispensed into a 384-well Opti-Plate (Perkin Elmer, 6007290) for the measurement of Tau phosphorylation in the phosphoTau (Thr212) AlphaLISA assay. Donor antibody, biotinylated HT7Tau (Thermo Fisher Scientific, MN1000B), and acceptor antibody, pThr212Tau (Thermo Fisher Scientific, 44740G) were both added to the cell lysates at a final concentration of 3 nM and incubated for 1 hour at room temperature. Following incubation of the lysates with the donor and acceptor antibodies, anti-rabbit IgG(Fc specific) AlphaLISA acceptor beads (Perkin Elmer, AL104C) were added at a 10 ug/mL final concentration and incubated for 1 hour at room temperature protected from light. Lastly, AlphaScreen streptavidin donor beads (PerkinElmer, 6760002) were added at 40 ug/mL final concentration and incubated for 1 hour at room temperature protected from light. Plates were read at Ex=[…], and Em=615 nm on the EnVision Multilabel Plate Reader (Perkin Elmer) phospho-Tau (Thr212) AlphaLISA signal was used to plot, draw the curve fitting, and determine each compound's EC50 in Prism (GraphPad).

Compound	EC50 [1] [µM]	EC50 [2] [µM]
CN1CCC(NC(=O)c2cnn3ccc(-c4c[nH]c5nc(C6CCCC6)ccc45)cc23)CC1 [Compound 1598, 5-(6-Cyclopentyl-1H-pyrrolo[2,3-b]pyridin-3-yl)-N-(1-methylpiperidin-4-yl)pyrazolo[1,5-a]pyridine-3-carboxamide]	0.004	0.132
O=C1NCCOc2cc(-c3c[nH]c4nc(C5CC5)ccc34)ccc21 [Compound 1529, 8-(6-Cyclopropyl-1H-pyrrolo[2,3-b]pyridin-3-yl)-3,4-dihydrobenzo[f][1,4] oxazepin-5(2H)-one]	0.028	0.413
FC(F)Oc1ccc2c(-c3ccc4nccn4c3)c[nH]c2n1 [Compound 1708, 6-(6-(Difluoromethoxy)-1H-pyrrolo[2,3-b]pyridin-3-yl)imidazo[1,2-a] pyridine]	0.018	0.54
CN1CCN(C(=O)c2cnn3ccc(-c4c[nH]c5ncc(C#N)cc45)cc23)CC1 [Compound 2046, 3-(3-(4-Methylpiperazine-1-carbonyl)pyrazolo[1,5-a]pyridin-5-yl)-1H-pyrrolo[2,3-b]pyridine-5-carbonitrile]	0.047	0.622
Cc1ccc2c(-c3ccc4ncccc4c3)c[nH]c2n1 [Compound 1488, 6-(6-Methyl-1H-pyrrolo[2,3-b]pyridin-3-yl)quinoline]	0.002	0.039
CN1CCN(C(=O)c2cnn3ccc(-c4c[nH]c5ncc(Cl)cc45)cc23)CC1 [Compound 215, (5-(5-Chloro-1H-pyrrolo[2,3-b]pyridin-3-yl)pyrazolo[1,5-a]pyridin-3-yl)(4-methylpiperazin-1-yl)methanone]	0.012	0.258
c1cncc(-c2cnc3[nH]cc(-c4ccc5ncccc5c4)c3c2)c1 [Compound 1194, 6-(5-(Pyridin-3-yl)-1H-pyrrolo[2,3-b]pyridin-3-yl)quinoline]		0.002
c1cn2nc(-c3c[nH]c4nc(C5CC5)ccc34)ccc2n1 [Compound 1508, 6-(6-Cyclopropyl-1H-pyrrolo[2,3-b]pyridin-3-yl)imidazo[1,2-b] pyridazine]	0.029	0.321
CCOc1ccc2c(-c3ccc4ncccc4c3)c[nH]c2n1 [Compound 1782, 6-(6-Ethoxy-1H-pyrrolo[2,3-b]pyridin-3-yl)quinoline]	0.015	0.305
CN1CCN(C(=O)c2cnn3ccc(-c4c[nH]c5ncccc45)cc23)CC1 [Compound 55, (5-(1H-Pyrrolo[2,3-b]pyridin-3-yl)pyrazolo[1,5-a]pyridin-3-yl)(4-methylpiperazin-1-yl)methanone]	0.004	
CC1(C)CC(=O)c2ccc(-c3c[nH]c4ncccc34)cc2O1 [Compound 80, 2,2-Dimethyl-7-(1H-pyrrolo[2,3-b]pyridin-3-yl)chroman-4-one]	0.031	
O=C1NCCOc2cc(-c3c[nH]c4ncccc34)ccc21 [Compound 84, 8-(1H-Pyrrolo[2,3-b]pyridin-3-yl)-3,4-dihydrobenzo[f][1,4]oxazepin-5(2H)-one]	0.003	
CN1CCN(c2cccc(Nc3ccc4c(-c5ccn6ncc(-c7cnn(C)c7)c6c5)c[nH]c4n3)c2)CC1 [Compound 1930, 3-(3-(1-Methyl-1H-pyrazol-4-yl)pyrazolo[1,5-a]pyridin-5-yl)-N-(3-(4-methylpiperazin-1-yl)phenyl)-1H-pyrrolo[2,3-b]pyridin-6-amine]	0.004	
CN1CCN(c2ccc(NC(=O)c3cnc4[nH]cc(-c5ccn6ncc(C(=O)N7CCCCC7)c6c5)c4c3)cn2)CC1 [Compound 802, N-(6-(4-Methylpiperazin-1-yl)pyridin-3-yl)-3-(3-(piperidine-1-carbonyl)pyrazolo[1,5-a]pyridin-5-yl)-1H-pyrrolo[2,3-b]pyridine-5-carboxamide]	0.007	
O=C1NCCn2cc(-c3c[nH]c4ncccc34)cc21 [Compound 10, 7-(1H-Pyrrolo[2,3-b]pyridin-3-yl)-3,4-dihydropyrrolo[1,2-a]pyrazin-1(2H)-one]	0.014	
CN1CCC(Oc2ncnc3ccc(-c4c[nH]c5nc(C6CCC6)ccc45)cc23)CC1 [Compound 1577, 6-(6-Cyclobutyl-1H-pyrrolo[2,3-b]pyridin-3-yl)-4-((1-methylpiperidin-4-yl)oxy)quinazoline]	0.214	
Cc1cn2c(n1)CN(C(=O)c1cnc3[nH]cc(-c4cc(F)c5nc(C)n(C(C)C)c5c4)c3c1)CC2 [Compound 577, (3-(4-Fluoro-1-isopropyl-2-methyl-1H-benzo[d]imidazol-6-yl)-1H-pyrrolo[2,3-b]pyridin-5-yl)(2-methyl-5,6-dihydroimidazo[1,2-a]pyrazin-7(8H)-yl)methanone]	0.003	
Cc1nc2c(F)cc(-c3c[nH]c4ncc(C(=O)Nc5cnn(C6CCNCC6)c5)cc34)cc2n1C(C)C [Compound 661, 3-(4-Fluoro-1-isopropyl-2-methyl-1H-benzo[d]imidazol-6-yl)-N-(1-(piperidin-4-yl)-1H-pyrazol-4-yl)-1H-pyrrolo[2,3-b]pyridine-5-carboxamide]	0.002	
O=C1NCCOc2cc(-c3c[nH]c4nc(C5CCC5)ccc34)ccc21 [Compound 1571, 8-(6-Cyclobutyl-1H-pyrrolo[2,3-b]pyridin-3-yl)-3,4-dihydrobenzo[f] [1,4]oxazepin-5(2H)-one]	0.05	
O=C(c1cnn2ccc(-c3c[nH]c4ncccc34)cc12)N1CCNC2(CC2)C1 [Compound 57, (5-(1H-Pyrrolo[2,3-b]pyridin-3-yl)pyrazolo[1,5-a]pyridin-3-yl)(4,7-diazaspiro[2.5]octan-7-yl)methanone]	0.003	
CN1CCC(NC(=O)c2ccnc3ccc(-c4c[nH]c5ncccc45)cc23)CC1 [Compound 89, N-(1-Methylpiperidin-4-yl)-6-(1H-pyrrolo[2,3-b]pyridin-3-yl) quinoline-4-carboxamide]	0.001	
Cc1nc2c(F)cc(-c3c[nH]c4ncc(-c5cc(F)c(F)c(N6CCNCC6)c5)cc34)cc2n1C(C)C [Compound 997, 6-(5-(3,4-Difluoro-5-(piperazin-1-yl)phenyl)-1H-pyrrolo[2,3-b]pyridin-3-yl)-4-fluoro-1-isopropyl-2-methyl-1H-benzo[d]imidazole]	0.006	
c1cnc2[nH]cc(-c3ccn4nccc4c3)c2c1 [Compound 36, 3-(Pyrazolo[1,5-a]pyridin-5-yl)-1H-pyrrolo[2,3-b]pyridine]	0.002	
CC1(C)NC(=O)c2cc(-c3c[nH]c4ncccc34)nn21 [Compound 9, 6,6-Dimethyl-2-(1H-pyrrolo[2,3-b]pyridin-3-yl)-5,6-dihydro-4H-imidazo[1,5-b]pyrazol-4-one]	0.019	
Cc1ccc2c(-c3cc(F)c4nc(C)n(C(C)C)c4c3)c[nH]c2n1 [Compound 1459, 4-Fluoro-1-isopropyl-2-methyl-6-(6-methyl-1H-pyrrolo[2,3-b]pyridin-3-yl)-1H-benzo[d]imidazole]	0.004	
CN1CCN(c2ncnc3ccc(-c4c[nH]c5ncc(-c6cccnc6)cc45)cc23)CC1 [Compound 1198, 4-(4-Methylpiperazin-1-yl)-6-(5-(pyridin-3-yl)-1H-pyrrolo[2,3-b]pyridin-3-yl)quinazoline]	0.003	
CN1CCC(NC(=O)c2ccc3c(-c4ccc5ncnn5c4)c[nH]c3n2)CC1 [Compound 2048, 3-([1,2,4]Triazolo[1,5-a]pyridin-6-yl)-N-(1-methylpiperidin-4-yl)-1H-pyrrolo[2,3-b]pyridine-6-carboxamide]	2.54	
Cc1ccncc1-c1cnc2[nH]cc(-c3cc(F)c4nc(C)n(C(C)C)c4c3)c2c1 [Compound 1249, 4-Fluoro-1-isopropyl-2-methyl-6-(5-(4-methylpyridin-3-yl)-1H-pyrrolo[2,3-b]pyridin-3-yl)-1H-benzo[d]imidazole]	0.002	
